The values that follow are results of earlier work, collected in US20260217749A1, “METAL COMPLEX COMPOUNDS AS PHOTOSENSITIZERS FOR PHOTODYNAMIC THERAPY” (UNIVERSITAT DE BARCELONA, priority 2023, published 2026).

This data set concerns SK-MEL-28 melanoma cells. Particulars: red light irradiation (625 nm).

By IC50 is commonly meant the midpoint of a concentration-inhibition curve. With `Cc1ccnc(-c2cc(C)ccn2)c1.Cc1ccnc(-c2cc(C)ccn2)c1.[Cl-].[Cl-].[Ru+2].c1csc(-c2ccc(-c3ccc(-c4nc5c6cccnc6c6ncccc6c5[nH]4)s3)s2)c1` [TLD-1433], the IC50 is 2300 nM and the PI value entry is recorded as “moderate”.
